According to article doi:10.1101/636423v1 (biorxiv, 2019):

How the values were obtained:
Assay in all cases: DiFMUP hydrolysis, fluorogenic phosphatase assay
Assay type in all cases: biochemical
[1] = biological target: rat PTPRZ-D1D2 (PTPRZ-ICR) (Rattus norvegicus, UniProt Q62656, D2178K/D2179K); settings: substrate DiFMUP; competitive; also bound 1:1 in native MS
[2] = biological target: rat PTPRZ-D1D2 (PTPRZ-ICR) (Rattus norvegicus, UniProt Q62656); settings: substrate DiFMUP; competitive; also bound 1:1 to monomer in native MS
[3] = biological target: PTPRZ-ΔD2 (ΔD2 mutant of PTPRZ-ICR) (Rattus norvegicus, UniProt Q62656); settings: substrate DiFMUP; competitive; also bound 1:1 in native MS

Chain of rat PTPRZ-D1D2 (PTPRZ-ICR) (Rattus norvegicus, UniProt Q62656, D2178K/D2179K) (Q62656 1699-2316 D2178K/D2179K): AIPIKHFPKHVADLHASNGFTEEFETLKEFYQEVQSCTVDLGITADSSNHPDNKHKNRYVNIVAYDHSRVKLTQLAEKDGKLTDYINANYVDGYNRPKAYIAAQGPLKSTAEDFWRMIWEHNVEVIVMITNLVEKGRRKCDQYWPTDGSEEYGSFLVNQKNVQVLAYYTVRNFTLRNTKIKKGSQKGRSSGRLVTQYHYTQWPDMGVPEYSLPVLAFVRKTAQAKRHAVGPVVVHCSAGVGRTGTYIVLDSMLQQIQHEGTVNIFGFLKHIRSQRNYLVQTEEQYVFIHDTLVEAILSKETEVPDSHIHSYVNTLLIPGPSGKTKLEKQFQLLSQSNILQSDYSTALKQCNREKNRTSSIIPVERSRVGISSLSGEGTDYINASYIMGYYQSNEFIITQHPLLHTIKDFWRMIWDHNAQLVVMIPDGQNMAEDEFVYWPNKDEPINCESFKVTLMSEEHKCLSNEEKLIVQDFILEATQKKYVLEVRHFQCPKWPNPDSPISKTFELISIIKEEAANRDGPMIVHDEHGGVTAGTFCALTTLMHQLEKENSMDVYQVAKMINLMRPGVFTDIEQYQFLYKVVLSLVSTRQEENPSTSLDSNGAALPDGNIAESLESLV
Chain of rat PTPRZ-D1D2 (PTPRZ-ICR) (Rattus norvegicus, UniProt Q62656) (Q62656 1699-2316): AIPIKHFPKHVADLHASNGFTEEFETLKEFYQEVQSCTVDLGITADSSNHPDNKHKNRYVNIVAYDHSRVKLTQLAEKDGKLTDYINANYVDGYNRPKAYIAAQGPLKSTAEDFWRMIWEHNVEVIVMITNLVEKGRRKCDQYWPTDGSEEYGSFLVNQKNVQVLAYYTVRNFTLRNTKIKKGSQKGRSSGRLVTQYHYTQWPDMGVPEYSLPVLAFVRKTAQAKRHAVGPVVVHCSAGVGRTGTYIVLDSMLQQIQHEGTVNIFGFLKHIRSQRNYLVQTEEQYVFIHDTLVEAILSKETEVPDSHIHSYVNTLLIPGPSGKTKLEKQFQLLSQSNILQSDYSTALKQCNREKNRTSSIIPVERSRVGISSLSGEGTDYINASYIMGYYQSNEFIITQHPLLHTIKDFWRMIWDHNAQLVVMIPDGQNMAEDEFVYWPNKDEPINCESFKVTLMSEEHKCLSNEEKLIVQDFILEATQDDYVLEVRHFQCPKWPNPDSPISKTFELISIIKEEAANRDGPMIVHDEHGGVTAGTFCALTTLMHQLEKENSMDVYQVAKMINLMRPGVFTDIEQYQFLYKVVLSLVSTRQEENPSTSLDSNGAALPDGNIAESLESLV

IC50 [1]: 0.37 µM
IC50 [2]: 0.38 µM
IC50 [3]: 0.4 µM
Substance: SCB4380
